The record followed here is US20140343104A1, “OSTEOGENESIS PROMOTER AND USE THEREOF” (National University Corporation Nagoya University, priority 2011, published 2014).

Assay [1] concerns P1 promoter region of the human Runx2 gene. As to the kind of experiment: RUNX2 P1 promoter luciferase reporter assay in BMP-2-induced C3H10T1/2 stable expression strain (primary, secondary, tertiary screening). Conditions: five times of screening (N=6/time); average of 5 times or even at once. The format is cell-based. The text has this:
Existing drugs which increase the promoter activity of the transcription factor Runx2 were exhaustively searched by luciferase assay. Firstly, the P1 promoter region of the human Runx2 gene was inserted into the multiple cloning site of the pGL4 luciferase reporter vector (Promega K.K.) (pGL4.10 vector). The pGL4.10 vector was transfected into the undifferentiated mouse mesenchymal cell line C3H10T1/2, and selectively cultured on a G418-containing medium, thereby establishing the stable expression strain. The cells were seeded on a 96-well (day 1), and human BMP-2 was added to each well on day 2, thereby inducing differentiation into osteoblasts. On the following day, the test compounds (10 μM) composing Prestwick Chemical Library (registered trademark) (Prestwick Chemical Ltd.) were added, and the cells were collected 24 hours after, and subjected to luciferase assay.
In addition to the compounds which made the reporter activity of luciferase (average of 5 times) 1.5 times that of the control, those made the activity 1.5 times than that of the control even at once were selected.
On the technique in general: A reporter such as luciferase makes a cellular process visible.

The test system of assay [2] is Runx2 gene. As to the kind of experiment: Runx2 gene expression by quantitative PCR in BMP-2-induced C3H10T1/2 cells. Type of assay: cell-based, mouse. Conditions: C3H10T1/2 cells differentiated by BMP-2; PPI cultured for 24 hours; FIG. 2. How it is done:
(§1) Human osteogenic sarcoma cells (HOSs) and the C3H10T1/2 cells were used in the experiment. Firstly, the cells (HOS or C3H10T1/2) were seeded on a 12-well plate (day 1). When the C3H10T1/2 cells were used, the human BMP-2 was added to each well on the following day. On day 3, PPI (rabeprazole or lansoprazole) was added and cultured for 24 hours, and the cells were collected. Total RNAs were prepared from the collected cells, and the expression of the Runx2 gene was analyzed by the quantitative PCR method.

The next assay has as its system luciferase protein. The experiment in a line: double luciferase assay, pGL4.10 basic vector and phRL vector cotransfected into C3H10T1/2 cells. Type of assay: cell-based. Conditions: pGL4.10 [luc2/SV40] basic vector and phRL [hRluc/TK] vector. On the procedure: In order to exclude the possibility of the potential agent to increase the enzymatic activity of luciferase protein, the pGL4. 10 basic vector (pGL4.10 [luc2/SV40] basic vector) and phRLvector (phRL [hRluc/TK] vector) were cotransfected into the C3H10T1/2 cells, the potential agents were individually added, and double luciferase assay was performed.

Assay [3] has as its system Runx2 gene. As to the kind of experiment: Runx2 gene expression in human bone marrow mesenchymal stem cells. The format is cell-based. Conditions: PPI-containing bone-inducing media, P0, P1, P2, FIG. 10. How it is done: On the other hand, the human bone marrow mesenchymal stem cells (POIETICS (registered trademark), Lonza Ltd.) were subjected to primary culture (P0) and subcultivation (P1, P2) in the PPI-containing bone-inducing media (culture media containing PPI, dexamethasone, β-glycerophosphoric acid, and ascorbic acid). The bone-inducing medium was replaced every three days. The cells were collected when each of P0, P1, and P2 reached confluent, and the expression of the Runx2 gene was analyzed in the same manner as in 4-1.

The test system of assay [4] is Runx2 protein. The experiment in a line: Runx2 protein expression by Western blot in HOS cells. Type of assay: cell-based, human. Conditions: 48 hours and 78 hours after the addition of PPI, relative to Gapdh, FIGS. 3 and 4. On the procedure:
as §1
(§2) Using the HOS cells and the C3H10T1/2 cells cultured in the same manner as in 4-1, and the expression level of the Runx2 protein and the ALP activity which is the index of bone differentiation were evaluated over time. The expression level of the Runx2 protein was evaluated by the Western blot test, and the ALP activity was measured by the ELISA method.
In general terms: Immunoblotting shows a protein as a band on a membrane.

In a further assay the test system is rat femur defect model. As to the kind of experiment: rat femur defect model, soft X-ray. Type of assay: in vivo. To be noted: SD rat femur 3 mm defect, ad libitum oral administration. The text has this: The left hind femur of an SD rat (male, 9 weeks old) was exposed by anterolateral approach, and an external fixator was installed. The diaphysis was cut by an oscillating saw, (defect amount 3 mm), and the bone was elongated in a single stage, and used as a bone defect model (defect group N=6, control group N=6). Lansoprazole was given to the bone defect model by ad libitum oral administration (about 10 to 20 times the usual human dose), and the bone defect part was photographed periodically by soft X-ray. In addition, the body weight and drinking water amount were periodically measured.

The test system of assay [5] is P1 promoter region of the human Runx2 gene. As to the kind of experiment: RUNX2 P1 promoter luciferase reporter assay in BMP-2-induced C3H10T1/2 stable expression strain (primary, secondary, tertiary screening). To be noted: three times of screening (N=6/time) at 8 levels of concentration. Type of assay: cell-based.
In assay [6] the test system is alkaline phosphatase (ALP) activity. As to the kind of experiment: ALP activity by ELISA in HOS cells. Type of assay: cell-based, human. To be noted: day 6 after the addition of PPI, FIG. 7. How it is done: as §1, §2
In general terms: ELISA stands for enzyme-linked immunosorbent assay.

Assay [7] shares this test system. The experiment in a line: ALP activity by ELISA in BMP-2-induced C3H10T1/2 cells. The format is cell-based, mouse. Conditions: day 5 after the addition of PPI, FIG. 8. How it is done: as §1, §2
Assay [8] deals with Runx2 gene. The experiment in a line: Runx2 gene expression in rat cultured bone marrow mesenchymal cells. The format is cell-based. Conditions: bone-inducing media, P1, P2, P3, 24 hours after the addition of PPI, FIG. 9. How it is done: Mesenchymal cells were prepared from a rat bone marrow solution, and cultured (cultured bone marrow mesenchymal cells). Subsequently, the cells were subcultivated (P1, P2, and P3) in bone-inducing media (dexamethasone, β-glycerophosphoric acid, and ascorbic acid were added the culture media). PPI was added when each of the P1, P2, and P3 reached confluent. The cells were collected 24 hours after the addition of PPI, and the expression of the Runx2 gene was analyzed in the same manner as in 4-1.

Assay [9] concerns Runx2 protein. The experiment in a line: Runx2 protein expression by Western blot in BMP-2-induced C3H10T1/2 cells. Type of assay: cell-based, mouse. To be noted: C3H10T1/2 cells differentiated by BMP-2; 48 hours and 78 hours after the addition of PPI; relative to Gapdh; FIGS. 5 and 6. On the procedure: as §1, §2
The test system of assay [10] is Runx2 gene. The experiment in a line: Runx2 gene expression by quantitative PCR in HOS cells. Conditions: PPI cultured for 24 hours, FIG. 1. Type of assay: cell-based, human. How it is done: as §1

As to `CC(C(=O)O)c1ccc(N2Cc3ccccc3C2=O)cc1` (stereo not shown) [indoprofen, 2-[4-(3-oxo-1H-isoindol-2-yl)phenyl]propanoic acid], the “secondary screening: reporter activity of luciferase 1.5 times that of the control” value (“secondary screening: reporter activity” below) in assay [1] is “selected”.

For the compound `Cl.Nc1ccc(N=Nc2ccccc2)c(N)n1` [phenazopyridine hydrochloride, 3-phenyldiazenylpyridine-2,6-diamine hydrochloride], the “secondary screening: reporter activity” value in assay [1] was “selected”.

On to `COC(=O)Nc1nc2ccc(SC(C)C)cc2[nH]1` [methiazole, methyl n-(6-propan-2-ylsulfanyl-1H-benzimidazol-2-yl) carbamate], for which the “secondary screening: reporter activity” value in assay [1] is recorded as “selected”.

As to `Cc1c(OCC(F)(F)F)ccnc1C[S+]([O-])c1nc2ccccc2[nH]1` (stereo not shown) [lansoprazole, 2-[[3-methyl-4-(2,2,2-trifluoroethoxy)pyridin-2-yl]methylsulfinyl]-1H-benzimidazole], the “induction of expression of the Runx2 gene” value in the assay on Runx2 gene [2] and in the assay on Runx2 gene [10] was “concentration-dependent activity of inducing the expression of the Runx2 gene” each time. In the assay on luciferase protein, the “specificity of RUNX2 promoter promotion versus increase of luciferase activity” value was “specifically promote the RUNX2 promoter activity”. Further, the “induction of the expression of the Runx2 gene” value with Runx2 gene [3] and with Runx2 gene [8] was “expression inducing effect” throughout. Moreover, the “Runx2 protein expression level” value in the assay on Runx2 protein [4] and in the assay on Runx2 protein [9] was “expression inducing effect” in each case. The osteogenesis promoting effect entry in the assay with rat femur defect model is “marked osteogenesis promoting effect”. Also, the “animals showing good osteogenesis (bone adhesion on soft X-ray)” value with rat femur defect model (about 10 to 20 times the usual human dose, 12 weeks, N=6) is 3/6. Also, the “tertiary screening: concentration dependency of the promotion of RUNX2 promoter activity” value (“tertiary screening” below) in assay [5] was “concentration dependency”. Further, the ALP activity entry in assay [6] and in assay [7] was “increase effect” throughout. Also, the “secondary screening: reporter activity” value in [1] is given as “selected”.

For the compound `c1ccc2[nH]c(-c3cscn3)nc2c1` [tiabendazole, 4-(1H-benzimidazol-2-yl)-1,3-thiazole], the “secondary screening: reporter activity” value in assay [1] is recorded as “selected”.

Consider `COc1ccc2cc(CCC(C)=O)ccc2c1` [nabumetone, 4-(6-methoxynaphthalen-2-yl)butan-2-one], for which the “specificity of RUNX2 promoter promotion versus increase of luciferase activity” value in the assay with luciferase protein is on record as “specifically promote the RUNX2 promoter activity”. The “tertiary screening” value in [5] was “concentration dependency”. Further, the “secondary screening: reporter activity” value in assay [1] was “selected”.

As for `COc1ccc(/C=C/C(=O)Nc2ccccc2C(=O)O)cc1OC` [tranilast, 2-[[(E)-3-(3,4-dimethoxyphenyl)prop-2-enoyl]amino]benzoic acid], the “specificity of RUNX2 promoter promotion versus increase of luciferase activity” value in the assay on luciferase protein was “slightly increase the luciferase activity”. Also, the “tertiary screening” value in assay [5] is “concentration dependency”. Moreover, the “secondary screening: reporter activity” value in [1] is “selected”.

Take `O=C(O)CCNC(=O)c1ccc(/N=N/c2ccc(O)c(C(=O)O)c2)cc1` [balsalazide sodium, disodium (3Z)-3-[[4-(2-carboxylatoethylcarbamoyl)phenyl]hydrazinylidene]-6-oxocyclohexa-1,4-diene-1-carboxylate dehydrate]: the “secondary screening: reporter activity” value in [1] is listed as “selected”.

For `CCCSc1ccc2nc(NC(=O)OC)[nH]c2c1` [albendazole, methyl n-(6-propylsulfanyl-1H-benzimidazol-2-yl) carbamate], the “secondary screening: reporter activity” value in [1] was “selected”.

With `Cc1oncc1C(=O)Nc1ccc(C(F)(F)F)cc1` [leflunomide, 5-methyl-N-[4-(trifluoromethyl)phenyl]-1,2-oxazole-4-carboxamide], the “specificity of RUNX2 promoter promotion versus increase of luciferase activity” value in the assay with luciferase protein is recorded as “specifically promote the RUNX2 promoter activity”. The “tertiary screening” value in [5] is “concentration dependency”. Moreover, the “secondary screening: reporter activity” value in assay [1] is “selected”.

`O=c1cc(-c2ccc(O)c(O)c2)oc2cc(O)cc(O)c12` [luteolin, 2-(3,4-dihydroxyphenyl)-5,7-dihydroxychromen-4-one]: the “secondary screening: reporter activity” value in assay [1] is “selected”.

Regarding `COCCCOc1ccnc(C[S+]([O-])c2nc3ccccc3[nH]2)c1C` (stereo not shown) [rabeprazole, 2-[[4-(3-methoxypropoxy)-3-methylpyridin-2-yl]methylsulfinyl]-1H-benzimidazole], the “induction of expression of the Runx2 gene” value in the assay with Runx2 gene [2] and in the assay on Runx2 gene [10] was “concentration-dependent activity of inducing the expression of the Runx2 gene” each time. For the same compound, the “specificity of RUNX2 promoter promotion versus increase of luciferase activity” value in the assay on luciferase protein is reported as “specifically promote the RUNX2 promoter activity”. Besides, the “induction of the expression of the Runx2 gene” value with Runx2 gene [3] and with Runx2 gene [8] was “expression inducing effect” each time. The “Runx2 protein expression level” value in the assay with Runx2 protein [4] and in the assay with Runx2 protein [9] was “expression inducing effect” each time. The “tertiary screening” value in [5] was “concentration dependency”. In addition, the ALP activity result in [6] and in assay [7] was “increase effect” throughout. Also, the “secondary screening: reporter activity” value in assay [1] is “selected”.

For `CC(C(=O)O)c1ccc(C(=O)c2ccccc2)s1` (stereo not shown) [tiaprofenic acid, 2-(5-benzoylthiophen-2-yl)propanoic acid], the “specificity of RUNX2 promoter promotion versus increase of luciferase activity” value in the assay with luciferase protein is “specifically promote the RUNX2 promoter activity”. In addition, the “tertiary screening” value in [5] was “concentration dependency”. Further, the “secondary screening: reporter activity” value in [1] is reported as “selected”.
